{"source": "ChEMBL document CHEMBL1139416", "about": "“Synthesis of a C-glucosylated cyclopropylamide and evaluation as a glycogen phosphorylase inhibitor” (Bioorg Med Chem Lett, 2008)", "key": {"Oryctolagus cuniculus [1]": {"species": "Oryctolagus cuniculus", "assay": "Inhibition of rabbit muscle glycogen phosphorylase b at 625 uM"}, "Oryctolagus cuniculus [2]": {"species": "Oryctolagus cuniculus", "assay": "Inhibition of rabbit muscle glycogen phosphorylase b at 2.5 mM"}}, "note": "Active and inactive are the calls of the source. The rule behind the calls is not given here.", "data": [{"molecule": "O=C(NC1([C@@H]2O[C@H](CO)[C@@H](O)[C@H](O)[C@H]2O)CC1)c1ccccc1", "values": [{"measurement": "Activity", "setting": "Oryctolagus cuniculus [1]", "result": "inactive"}, {"measurement": "inhibition", "setting": "Oryctolagus cuniculus [2]", "result": 16, "unit": "%"}]}]}
